How the values were obtained:
Human factor Xa = Human factor Xa (Homo sapiens, UniProt P00742); assay: Xa Assay; format: biochemical; set-up: purchased Enzyme Research Laboratories, South Bend Ind; conditions: for % Inhibition Factor Xa (30 µM): at 30 µM inhibitor; for inhibition at 100 µM: at 100 μM inhibitor
Human thrombin = Human thrombin (Homo sapiens, UniProt P00734); assay: biochemical; conditions: for inhibition at 100 µM: read-out: % Inhibition Thrombin II at 100 μM
[1] = molecular target: T1, recombinant soluble tissue factor and recombinant human factor VIIa (TF-VIIa) (Homo sapiens, UniProt P08709); assay: TF-VIIa Assay; format: biochemical; conditions: for IC50: read-out: IC50 TF-VIIa; for inhibition at 30 µM: 1 h, at 30 µM inhibitor
T1 construct: conversion of coagulation factor VII to VIIa by Xa; purchased American Diagnostica, Greenwich Conn; host or cells: VIIa purchased; soluble TF made in house in E. coli
T1 sequence (P08709 61-212 limits assumed): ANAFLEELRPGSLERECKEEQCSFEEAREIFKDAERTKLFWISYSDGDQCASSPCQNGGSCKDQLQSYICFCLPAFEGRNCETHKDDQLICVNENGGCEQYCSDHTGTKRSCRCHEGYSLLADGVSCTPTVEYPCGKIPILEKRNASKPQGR
T1 sequence (P08709 213-466 limits assumed): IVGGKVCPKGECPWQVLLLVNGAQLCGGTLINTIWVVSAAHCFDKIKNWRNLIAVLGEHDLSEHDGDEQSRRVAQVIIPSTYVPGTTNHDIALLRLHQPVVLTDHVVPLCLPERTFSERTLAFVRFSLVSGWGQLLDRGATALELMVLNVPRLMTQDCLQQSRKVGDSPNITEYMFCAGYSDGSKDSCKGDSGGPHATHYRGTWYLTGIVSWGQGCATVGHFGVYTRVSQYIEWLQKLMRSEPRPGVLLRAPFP
T1 sequence (P13726 33-251 partner limits assumed): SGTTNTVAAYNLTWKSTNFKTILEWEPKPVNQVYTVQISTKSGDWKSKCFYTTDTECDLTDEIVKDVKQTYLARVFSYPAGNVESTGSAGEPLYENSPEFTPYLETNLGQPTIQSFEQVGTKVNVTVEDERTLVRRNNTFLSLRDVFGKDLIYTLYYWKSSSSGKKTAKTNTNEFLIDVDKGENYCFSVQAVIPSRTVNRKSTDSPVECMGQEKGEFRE

Human factor Xa, sequence (P00742 41-179 limits assumed): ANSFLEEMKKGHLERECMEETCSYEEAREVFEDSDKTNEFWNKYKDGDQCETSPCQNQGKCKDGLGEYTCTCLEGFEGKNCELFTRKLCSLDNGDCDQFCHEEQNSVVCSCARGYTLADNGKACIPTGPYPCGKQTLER
Human factor Xa, sequence (P00742 235-488 limits assumed): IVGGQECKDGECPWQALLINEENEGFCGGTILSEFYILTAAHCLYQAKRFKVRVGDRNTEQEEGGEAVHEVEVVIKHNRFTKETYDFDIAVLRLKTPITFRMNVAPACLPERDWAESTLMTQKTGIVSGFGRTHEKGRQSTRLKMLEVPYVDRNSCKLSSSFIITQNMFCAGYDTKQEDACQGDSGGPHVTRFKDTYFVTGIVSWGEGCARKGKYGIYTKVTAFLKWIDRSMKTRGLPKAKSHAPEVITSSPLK

Row | IC50 (Human factor Xa) | IC50 (Human thrombin) | IC50 [1] | % Inhibition Factor Xa (30 µM) (Human factor Xa) | inhibition at 100 µM (Human factor Xa) | inhibition at 100 µM (Human thrombin) | inhibition at 30 µM [1] | SMILES
1 | 6.5 µM | 4.3 µM | 380 nM |  |  |  |  | N=C(N)c1ccc(CNC(=O)Cn2c(-c3cccc(C(=N)N)c3)c(Cl)nc(NC3CCC3)c2=O)cc1 [Example 114]
2 |  | > 30 µM | 26800 nM | 3% |  |  |  | Nc1cccc(-c2c(Cl)nc(NC3CCC3)c(=O)n2CC(=O)NCc2ccc3c(N)nsc3c2)c1 [Example 145]
3 |  |  | 11 nM |  | 33% | 47% |  | CC(C)Nc1nc(Cl)c(-c2cc(N)cc(C(=O)NCc3cccc(F)c3)c2)n(CC(=O)NCc2ccc(C(=N)N)cc2)c1=O [Example 128-12]
4 |  |  |  |  | 13% | 11% | 2% | N=C(N)c1ccc(NC(=O)Cn2c(-c3cccc(N)c3)c(Cl)nc(NC3CCC3)c2=O)cc1 [Example 141]
5 |  |  | 49.1 nM |  | 26% | 36% |  | CC(C)Nc1nc(Cl)c(-c2cc(N)cc(C(=O)NCc3cccc(C(F)(F)F)c3)c2)n(CC(=O)NCc2ccc(C(=N)N)cc2)c1=O [Example 128-13]
6 |  | 7.5 µM | 550 nM | 10% |  |  |  | N=C(N)c1ccc(CNC(=O)Cn2c(-c3ccc(N)cc3)c(Cl)nc(NC3CCC3)c2=O)cc1 [Example 115]
7 |  | 20.2 µM | 10.9 nM |  | 41% |  |  | CC(C)Nc1nc(Cl)c(-c2cc(N)cc(C(=O)NC3CCCCCC3)c2)n(CC(=O)NCc2ccc(C(=N)N)cc2)c1=O [Example 128-17]
8 |  | 24 µM | 10.7 nM |  | 42% |  |  | CC(C)Nc1nc(Cl)c(-c2cc(N)cc(C(=O)NC(C)(C)c3ccccc3)c2)n(CC(=O)NCc2ccc(C(=N)N)cc2)c1=O [Example 128-4]
9 |  |  | 100 nM |  | 43% | 47% |  | N=C(N)c1ccc(CNC(=O)Cn2c(-c3cc(N)nc(C(=O)O)c3)cnc(NC3CCC3)c2=O)cc1 [Example 120]
10 |  |  | 7030 nM |  | 8% | 4% |  | N/N=C(/N)c1ccc(CNC(=O)Cn2c(-c3cccc(N)c3)c(Cl)nc(NC3CCC3)c2=O)cc1 [Example 148]
11 |  | 4.68 µM | 16 nM | 17% |  |  |  | CC(C)Nc1nc(Br)c(-c2cccc(N)c2)n(CC(=O)NCc2ccc(C(=N)N)cc2)c1=O [Example 124]
12 |  | 35.8 µM | 4710 nM |  | 41% |  |  | N=C(N)c1ccc(CNCCn2c(-c3cccc(N)c3)c(Cl)nc(NC3CCC3)c2=O)cc1 [Example 139]
13 |  |  | 11.4 nM |  | 35% | 46% |  | CC(C)Nc1nc(Cl)c(-c2cc(N)cc(C(=O)NCc3ccccc3C(F)(F)F)c2)n(CC(=O)NCc2ccc(C(=N)N)cc2)c1=O [Example 128-11]
14 | 35 µM | 13 µM | 270 nM |  |  |  |  | COC(=O)c1cccc(Sc2ccc(N)cc2-c2c(Cl)nc(NC(C)C)c(=O)n2CC(=O)NCc2ccc(C(=N)N)cc2)c1 [Example 112]
15 | 64 µM | 35 µM | 700 nM |  |  |  |  | CC(C)Nc1nc(Cl)c(-c2cccc(N)c2)n(CC(=O)NNc2ccc(C(=N)N)cc2)c1=O [Example 157]
16 |  | 25 µM | 360 nM | 4% |  |  |  | CC(C)Nc1nc(Cl)c(-c2cccc(N)c2)n(CC(=O)NCC2CCC(C(=N)N)C=N2)c1=O (stereo not drawn) [Example 150]
17 |  |  |  |  | 28% | 39% | 8% | N=C(N)c1ccc(Cc2cccc(-n3c(-c4cccc(N)c4)c(Cl)nc(NC4CCC4)c3=O)c2)cc1 [Example 138]
18 | > 30 µM | > 30 µM |  |  |  |  | 28% | Nc1cccc(-c2c(Cl)nc(NC3CCC3)c(=O)n2CC(=O)NCc2ccc(-c3noc(=O)[nH]3)cc2)c1 [Example 152]
19 | > 30 µM | > 30 µM | 120 nM |  |  |  |  | CSc1ccc(N)cc1-c1c(Cl)nc(NC(C)C)c(=O)n1CC(=O)NCc1ccc(C(=N)N)cc1 [Example 111]
